Results: US20220233561A1, “HUMAN MILK OLIGOSACCHARIDES FOR USE IN THE TREATMENT OF SYMPTOMS IN A PATIENT SUFFERING FROM NON-COELIAC WHEAT AND / OR GLUTEN SENSITIVITY” (GLYCOM A/S, priority 2016, published 2022)

Assays:
Type in all cases: cell-based
Settings in all cases: 5 mg HMO/ml, compared to control cultures
[1] = test system: TFF3 expression in human LS174T cells; assay: Example 3: goblet cell gene expression by quantitative RT-PCR, TFF3
Procedure: (§1) 2′-FL and LNnT are tested with respect to their ability to induce MUC2, TFF3, EIMβ, CHST5, and GAL3ST2 expression in the human LS174T cell culture model of goblet cells. The human LS174T cell line is obtained from the American Type Culture Collection (ATCC). LS174T cells are maintained in minimum essential medium (MEM) supplemented according to instructions at 37° C. in air containing 5% of CO2. 2′-FL and LNnT are dissolved in cell culture grade water to the required concentration. The LS174T cells are treated with the HMO solution containing 0 or 5 mg HMO/ml. The LS174T cells are collected and suspended in Trizol reagent and total RNA is isolated using an RNA analysis kit (Qiagen) according to the manufacturer's instructions and the RNA isolates are quantified using Nanodrop analysis (Thermo Fisher Scientific). RNA isolates are reverse transcribed using a high capacity cDNA Reverse Transcription Kit (Applied Biosystems) to create cDNA, which is then used to assess gene expression via quantitative RT-PCR. For the quantitative RT-PCR, specific TaqMAN gene expression assays are obtained from Applied Biosystems, which include expression assays for MUC2, TFF3, CHST5 and GAL3ST2. Quantitative real-time PCR is performed using TaqMAN PCR Master Mix (Applied Biosystems). […] The results are analysed using SDS 2.3 software and calculated by delta Ct method. […]

[2] = test system: CHST5 expression in human LS174T cells; assay: Example 3: goblet cell gene expression by quantitative RT-PCR, CHST5
Procedure: as §1

[3] = test system: GAL3ST2 expression in human LS174T cells; assay: Example 3: goblet cell gene expression by quantitative RT-PCR, GAL3ST2
Procedure: as §1

[4] = test system: MUC2 expression in human LS174T cells; assay: Example 3: goblet cell gene expression by quantitative RT-PCR, MUC2
Procedure: as §1

CC(=O)N[C@H]1[C@H](O[C@H]2[C@@H](O)[C@@H](CO)O[C@@H](O[C@H]3[C@H](O)[C@@H](O)C(O)O[C@@H]3CO)[C@@H]2O)O[C@H](CO)[C@@H](O[C@@H]2O[C@H](CO)[C@H](O)[C@H](O)[C@H]2O)[C@@H]1O (mixture of isomers) [LNnT, lacto-N-neotetraose] was tested. Which TFF3 gene expression [1] did it give?
Its TFF3 gene expression is “increases the expression”.

What about the CHST5 gene expression [2] of the same compound?
The CHST5 gene expression was “minimal induction”.

And the GAL3ST2 gene expression [3]?
The GAL3ST2 gene expression was “lack of induction”.

What about the MUC2 gene expression [4] of the same compound?
Its MUC2 gene expression is “increases the expression”.
